# Test results reported in publication PMC8537953 (Viruses, 2021).
# System: SARS-CoV-2
# Type: cell-based
structure (smiles),measurement,value
"CC(N)C12CC3CC(CC(C3)C1)C2 (stereo not shown) [Rimantadine, rimantadine]",% of culture cells infected,≥ 80%
